Molecular target: T1, APOL1 (Homo sapiens, UniProt O14791)
T1 sequence (O14791 1-398 S342G/I384M): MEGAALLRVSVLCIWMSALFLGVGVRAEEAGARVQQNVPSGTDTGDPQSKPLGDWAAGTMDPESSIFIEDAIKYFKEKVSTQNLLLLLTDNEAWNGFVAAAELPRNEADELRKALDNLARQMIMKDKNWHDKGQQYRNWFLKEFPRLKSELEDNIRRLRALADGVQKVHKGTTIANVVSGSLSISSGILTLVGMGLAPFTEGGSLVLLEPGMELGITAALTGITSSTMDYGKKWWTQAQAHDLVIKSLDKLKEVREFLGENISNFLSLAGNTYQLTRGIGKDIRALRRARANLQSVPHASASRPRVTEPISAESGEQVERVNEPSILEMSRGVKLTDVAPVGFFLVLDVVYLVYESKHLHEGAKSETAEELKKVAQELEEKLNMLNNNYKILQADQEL
Assay: MultiTox-Fluor Multiplex Cytotoxicity Assay in tet-inducible APOL1 T-REx-HEK293 cells (cell rescue, ratio of dead to live cells)
Format: cell-based
Conditions: tet-inducible transgenic APOL1 T-REx-HEK293 cell lines, 50 ng/mL tet, 24 hours; read-out: IP50 (i.e., IC50 for cell proliferation)
How it was run: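 T-REx-HEK293 cells with tet-inducible APOL1 were treated with compound (10 μM top, 10-point 3-fold dilution, duplicate) plus 50 ng/mL tetracycline for 24 h at 37° C, in DMEM with 2% tet-free FBS. MultiTox-Fluor protease signals gave a dead/live ratio, normalized to no tet (100% viability) and tet alone (0%).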

| SMILES | IC50 [nM] |
| --- | --- |
| Clc1cc2c(s1)CCOC21CCN(Cc2cn[nH]c2)CC1 [Compound 1165, 2-chloro-1′-(1H-pyrazol-4-ylmethyl)spiro[6,7-dihydrothieno[3,2-c]pyran-4,4′-piperidine]] | 100 to 500 |
| CC(=O)n1cc(CN2CCC3(CC2)OCCc2sc(Cl)cc23)cn1 [Compound 1166] | 100 to 500 |
| Cn1cc(CN2CCC3(CC2)OCCc2sc(C(F)(F)F)cc23)cn1 [Compound 1167] | 100 to 500 |
| Cn1cc(CN2CCC3(CC2)OCCc2sc(Cl)cc23)cn1 [Compound 1168] | 500 to 1000 |
| CS(=O)(=O)CCn1cc(CN2CCC3(CC2)OCCc2cc(Cl)sc23)cn1 [Compound 1169, 2′-chloro-1-((1-(2-(methylsulfonyl)ethyl)-1H-pyrazol-4-yl)methyl)-4′,5′-dihydrospiro[piperidine-4,7′-thieno[2,3-c]pyran]] | 100 to 500 |
| CCc1cc2c(s1)C[C@@H](C)OC21CCN(Cc2cnn(C)c2)CC1 [Compound 1176] | 500 to 1000 |
| CNS(=O)(=O)CCn1cc(CN2CCC3(CC2)OCC(C)(C)c2sc(Cl)cc23)cn1 [Compound 1177, 2-[4-[(2-chloro-7,7-dimethyl-spiro[6H-thieno[3,2-c]pyran-4,4′-piperidine]-1′-yl)methyl]pyrazol-1-yl]-N-methyl-ethanesulfonamide] | < 100 |
| Cn1cc(CN2CCC3(CC2)OCC(C)(C)c2sc(Cl)cc23)cn1 [Compound 1178, 2-chloro-7,7-dimethyl-1′-[(1-methylpyrazol-4-yl)methyl]spiro[6H-thieno[3,2-c]pyran-4,4′-piperidine]] | < 100 |
| Cn1cc(CN2CCC3(CC2)OCC2(CC2)c2sc(Cl)cc23)cn1 [Compound 1179, 2′-chloro-1″-[(1-methyl-1H-pyrazol-4-yl)methyl]-6′H-dispiro[cyclopropane-1,7′-thieno[3,2-c]pyran-4′,4″-piperidine]] | < 100 |
| CS(=O)(=O)CCn1cc(CN2CCC3(CC2)OCC(O)c2cc(Cl)sc23)cn1 (stereo not drawn) [Compound 1181, 2-chloro-1′-[[1-(2-methylsulfonylethyl)pyrazol-4-yl]methyl]spiro[4,5-dihydrothieno[2,3-c]pyran-7,4′-piperidine]-4-ol] | 500 to 1000 |
| CCc1cc2c(s1)C(CC)COC21CCN(Cc2cn(CCS(C)(=O)=O)nn2)CC1 (stereo not drawn) [Compound 1182, 2,7-diethyl-1′-[[1-(2-methylsulfonylethyl)triazol-4-yl]methyl]spiro[6,7-dihydrothieno[3,2-c]pyran-4,4′-piperidine]] | 500 to 1000 |
| CCc1cc2c(s1)CCOC21CCN(Cc2cn(C3CS(=O)(=O)C3)nn2)CC1 [Compound 1183] | 500 to 1000 |
